The test system of the experiment is B16-OVA cells. Kind of experiment: Calreticulin externalization assay (flow cytometry). The experiment is classed as cell-based, mouse. Particulars: within 60 minutes of treatment. How it is done:
Calreticulin externalization was determined as previously detailed (Gomez-Cadena et al. 2016). Briefly, cells (A431, MM649, B16-OVA) cultured in complete medium at 37° C., 5% CO2 were detached via trypsinisation, centrifuged at 1,200 rpm and washed ×2 with fresh medium. After an additional round of centrifugation, the resultant cell pellet was resuspended at a concentration of 1×10^6 cells/ml, after which epoxytigliane was added to a final concentration of 500 or 300 μM. Ethanol only controls were also performed. Cell suspensions were incubated at 37° C., 5% CO2 and at the indicated timepoints, 200 μl of sample was removed and incubated with LIVE/DEAD fixable far red stain for 5 mins on ice. Following this, cells were pelleted at 1,200 rpm for 4 mins and washed ×1 with PBS. 500 μl of PBS, 0.25% formaldehyde was then added to each pellet to perform a light fixation without compromising plasma membrane integrity. […]
Samples were gated by FSC-H v FSC-A first to identify single cells, after which the LIVE/DEAD stain (Ex: 640 nm, Em: 670/14) negative (intact cell) population was analysed for green fluorescence (Ex: 488 nm, Em: 530/30; calreticulin externalization). Mean fluorescence intensity values were subsequently determined and graphed versus time.

The structures appear in SMILES notation.

On to `C/C=C(\C)C(=O)O[C@@H]1[C@@H](C)[C@@]2(O)[C@H]([C@@H]3C(C)(C)[C@]13OC(=O)[C@@H](C)CC)[C@@H]1O[C@]1(CO)[C@@H](O)[C@]1(O)C(=O)C(C)=C[C@H]12` [Compound 1, 12-tigloyl-13-(2-methylbutanoyl)-6,7-epoxy-4,5,9,12,13,20-hexahydroxy-1-tiglien-3-one], for which the “calreticulin externalisation (mean fluorescence intensity)” value is given as “significant increases in mean fluorescence intensity”.

Values taken from patent US11213506B2, “Combination therapy for the treatment or prevention of tumours” (QBIOTICS PTY LTD, priority 2017, dated 2022).
